Measurements: ChEMBL document CHEMBL1201862, “PubChem BioAssay data set” (2004)
Calls of active or inactive are those of the source.

Legend:
Cytochrome P450 3A4 = Cytochrome P450 3A4 (Homo sapiens, UniProt P08684);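 note: CYP3A4 tested as one member of a cytochrome P450 panel screen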
[1] = viability loss in HEK293T cells – cell-based, cherry-picks, cytotoxicity control for HIV Vif inhibitor project, dose response (AID 652208); type: functional
Cytochrome P450 2C9 = Cytochrome P450 2C9 (Homo sapiens, UniProt P11712)
[2] = biological target: Peroxisome proliferator-activated receptor gamma/Nuclear receptor coactivator 1 (Homo sapiens, UniProt P37231); test: (§1) TR-FRET dose response biochemical High Throughput Screening assay for agonists of the steroid receptor coactivator 1 (SRC-1) recruitment by the peroxisome proliferator-activated receptor gamma (PPAR gamma): non-selective agonists. [Related pubchem assays (depositor defined):AID1300, AID1808, AID504735, AID631]; type: protein assay
[3] = biological target: Peroxisome proliferator-activated receptor gamma/Nuclear receptor coactivator 3 (Homo sapiens, UniProt P37231); test: as §1, with “3 (SRC-3)” for “1 (SRC-1)”, “assays: 1301 (Confirmation screen.), 1048 (Primary screen.)]” for “assays (depositor defined):AID1300, AID1808, AID504735, AID631]”; type: functional
Beta-galactosidase = Beta-galactosidase (Escherichia coli, UniProt Q8VNN2); test: Dose response counterscreen for EBI2 assay utilizing the enzyme, b-galactosidase.; type: functional
[4] = biological target: Peroxisome proliferator-activated receptor gamma/Nuclear receptor coactivator 2 (Homo sapiens, UniProt P37231); test: TR-FRET dose response biochemical High Throughput Screening assay for agonists of the steroid receptor coactivator 2 (SRC-2) recruitment by the peroxisome proliferator-activated receptor gamma (PPAR gamma): non-selective agonists. [Related pubchem assays: 1297, 1032 ]; type: functional
Vero = test: viability loss in Vero cells – cell-based, plate reader, cherry-pick samples, cytotoxicity control, dose response (AID 687020); type: functional; conditions: Chlorocebus sabaeus
Aminopeptidase N = biological target: T1, Aminopeptidase N (Plasmodium falciparum FcB1/Columbia, UniProt O96935); test: malaria alanyl aminopeptidase activity blockers – biochemical, fluorogenic H-Leu-NHMec substrate, 1536-well (AID 1445); design: species or system Plasmodium falciparum 3D7, 3D7
T1 sequence (O96935 whole entry): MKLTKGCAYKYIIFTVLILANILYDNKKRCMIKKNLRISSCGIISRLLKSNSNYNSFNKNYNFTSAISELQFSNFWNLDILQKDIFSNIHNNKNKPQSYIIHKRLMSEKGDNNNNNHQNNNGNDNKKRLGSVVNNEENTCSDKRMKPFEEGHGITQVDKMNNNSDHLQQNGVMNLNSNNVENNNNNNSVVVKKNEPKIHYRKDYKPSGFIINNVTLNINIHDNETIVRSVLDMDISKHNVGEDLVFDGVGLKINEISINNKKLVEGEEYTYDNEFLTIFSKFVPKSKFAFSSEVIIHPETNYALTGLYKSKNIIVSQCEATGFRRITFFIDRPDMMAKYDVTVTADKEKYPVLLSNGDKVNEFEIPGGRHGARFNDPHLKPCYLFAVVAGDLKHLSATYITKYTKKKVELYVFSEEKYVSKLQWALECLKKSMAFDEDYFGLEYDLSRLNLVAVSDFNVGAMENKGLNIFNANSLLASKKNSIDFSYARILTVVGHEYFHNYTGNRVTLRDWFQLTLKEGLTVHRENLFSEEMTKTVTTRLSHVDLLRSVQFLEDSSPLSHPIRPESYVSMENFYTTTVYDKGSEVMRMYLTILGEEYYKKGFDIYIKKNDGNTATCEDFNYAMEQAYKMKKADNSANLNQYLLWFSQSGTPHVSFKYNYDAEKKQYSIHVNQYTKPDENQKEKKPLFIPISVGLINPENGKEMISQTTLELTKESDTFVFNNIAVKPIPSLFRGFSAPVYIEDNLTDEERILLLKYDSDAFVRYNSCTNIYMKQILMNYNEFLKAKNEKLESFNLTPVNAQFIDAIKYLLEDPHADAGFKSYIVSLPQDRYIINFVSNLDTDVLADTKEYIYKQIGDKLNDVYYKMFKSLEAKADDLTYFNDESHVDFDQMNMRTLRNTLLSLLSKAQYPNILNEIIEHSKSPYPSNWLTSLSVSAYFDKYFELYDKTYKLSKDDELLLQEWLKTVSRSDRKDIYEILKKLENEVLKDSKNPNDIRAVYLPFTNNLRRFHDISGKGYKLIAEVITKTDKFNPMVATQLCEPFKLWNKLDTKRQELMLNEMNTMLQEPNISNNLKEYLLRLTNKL

Beta-lactamase [5] = biological target: Beta-lactamase (Salmonella choleraesuis (strain SC-B67), UniProt Q5J463); test: Epi-absorbance-based counterscreen for selective VIM-2 inhibitors: dose response biochemical high throughput screening assay to identify inhibitors of TEM-1 serine-beta-lactamase.
Beta-lactamase [6] = biological target: T2, Beta-lactamase (Pseudomonas aeruginosa, UniProt Q79MP6); test: […] counterscreen for selective VIM-2 inhibitors: dose response biochemical high throughput screening assay to identify inhibitors of IMP-1 metallo-beta-lactamase.
Phospholipase A2 = Phospholipase A2 (Homo sapiens, UniProt P04054); type: functional;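 note: confirmatory dose-response counterscreen on phospholipase A2, testing hits that came from an ultra-high-throughput screen for ATG4B inhibitors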
Cysteine protease ATG4B = biological target: T3, Cysteine protease ATG4B (Homo sapiens, UniProt Q9Y4P1); type: functional;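 note: Fluorescence-based dose-response confirmation assay measuring inhibition of ATG4B activity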
T3 sequence (Q9Y4P1 whole entry): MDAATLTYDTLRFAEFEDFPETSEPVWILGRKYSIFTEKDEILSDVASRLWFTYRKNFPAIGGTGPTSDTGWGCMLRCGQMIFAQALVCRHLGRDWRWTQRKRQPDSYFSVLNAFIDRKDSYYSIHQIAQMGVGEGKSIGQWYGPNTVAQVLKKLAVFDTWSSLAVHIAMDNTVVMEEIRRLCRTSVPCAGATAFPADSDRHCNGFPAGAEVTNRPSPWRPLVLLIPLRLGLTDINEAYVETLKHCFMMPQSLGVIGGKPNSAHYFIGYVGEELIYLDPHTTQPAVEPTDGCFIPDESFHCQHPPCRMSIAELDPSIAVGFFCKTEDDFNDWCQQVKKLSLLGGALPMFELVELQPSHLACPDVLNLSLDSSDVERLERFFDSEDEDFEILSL

Beta-lactamase [7] = biological target: T2, Beta-lactamase; test: inhibition of IMP-1 beta-lactamase activity – biochemical, epi-absorbance, selectivity assay for VIM-2 inhibitor project, dose response (AID 1920)
cells [8] = type: functional, cell-based
cells [9] = type: functional, cell-based; remark: listed apart in the source
[10] = CMV-driven luciferase expression suppression in HEK293 – cell-based, luminescence, dry powder, counter-screen for Pax8 inhibitor project, dose response (AID 743020); type: functional
[11] = fluconazole-exposed Candida albicans growth modulators – fluorescence, retest, confirmation (AID 2467); type: functional, cell-based
[12] = NIH3T3 cell viability loss – ATP luminescence, mouse fibroblasts, counter-screen, dose response (AID 2010); type: functional, cell-based;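 note: cells exposed to compound for about 90 hours before reading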
[13] = Trypanosoma cruzi growth suppression in host cells – NIH3T3 host cells, beta-gal luminescence, confirmation (AID 2044); type: functional, cell-based;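 note: intracellular parasites grown in NIH/3T3 mouse fibroblasts as host cells; luminescent beta-galactosidase reporter signal from transgenic T. cruzi replicating inside host cells; inhibitors lower the luminescence signal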
[14] = biological target: Heat shock protein HSP 90-alpha (Homo sapiens, UniProt P07900); type: functional, organism-based
[15] = biological target: ATP-dependent molecular chaperone HSP82 (Candida albicans (strain WO-1) (Yeast), UniProt C4YTQ8); test: steroid-induced GRE reporter decrease in yeast – S. cerevisiae, luminescence, Hsp90 inhibitor project, dose response (AID 2400); type: functional, cell-based;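 note: beta-galactosidase luminescence from glucocorticoid response element reporter as proxy for Hsp90 function; inhibitor potency where signal loss means Hsp90 inhibition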
[16] = HGIII-sPLA2 enzyme inhibition potency – biochemical, QFRET, IC50, dose response (AID 743457);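 note: green fluorescence rise as the enzyme cleaves BODIPY PC-A2 in liposomes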
[17] = biological target: T4, Serine/threonine-protein phosphatase (Candida dubliniensis (strain CD36 / CBS 7987 / NCPF 3949 / NRRLY-17841) (Yeast), UniProt B9W6M3); test: blockers of CaCl2-induced CDRE-lacZ signaling – S. cerevisiae, luminescence, secondary, dose response (AID 2388); type: functional, cell-based;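 note: yeast reporter cells carrying a calcineurin-responsive lacZ construct stimulated with calcium chloride; luminescent beta-galactosidase reporter signal in whole cells rather than isolated phosphatase activity; potency for inhibition where a drop in reporter signal means calcineurin blockade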
T4 sequence (B9W6M3 whole entry): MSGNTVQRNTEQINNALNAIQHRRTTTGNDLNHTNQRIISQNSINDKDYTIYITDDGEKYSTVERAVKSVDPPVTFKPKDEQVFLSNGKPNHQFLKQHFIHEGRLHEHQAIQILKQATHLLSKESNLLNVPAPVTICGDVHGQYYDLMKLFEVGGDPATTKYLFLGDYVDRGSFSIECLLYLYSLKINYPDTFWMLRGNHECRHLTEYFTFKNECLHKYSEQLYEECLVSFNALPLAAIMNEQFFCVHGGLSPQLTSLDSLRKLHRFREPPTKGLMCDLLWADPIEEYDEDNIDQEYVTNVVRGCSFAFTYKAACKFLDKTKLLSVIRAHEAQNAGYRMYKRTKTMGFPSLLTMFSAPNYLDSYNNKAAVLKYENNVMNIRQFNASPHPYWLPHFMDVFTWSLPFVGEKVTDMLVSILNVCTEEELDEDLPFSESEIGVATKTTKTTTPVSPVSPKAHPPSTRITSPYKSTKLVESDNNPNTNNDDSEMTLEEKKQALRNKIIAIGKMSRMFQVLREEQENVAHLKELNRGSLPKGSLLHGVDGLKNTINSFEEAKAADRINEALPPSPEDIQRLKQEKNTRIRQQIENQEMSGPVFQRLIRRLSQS

Streptococcus = test: GAS UMAA2166 growth inhibition – luminescence, BacTiterGlo, counter-screen for streptokinase expression inhibitor project, dose response (AID 1915); type: functional, organism-based;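 note: potency for reduction of bacterial viability or growth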
[18] = test system: Streptococcus sp. 'group A'; test: Streptococcus pyogenes SK(-)GAS viability under kanamycin – luminescence, BacTiterGlo, confirmation, counter-screen for streptokinase expression inhibitor project, dose response (AID 1900); type: functional, organism-based
[19] = NIH-3T3 fibroblast cytotoxicity, dose response, cytotoxicity control, cell-based, fluorescence, Alamar Blue, secondary assay (AID 2327); type: functional;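 note: NIH-3T3 mouse fibroblasts cultured with fluconazole at 8 µg/mL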
Nonstructural protein 1 = Nonstructural protein 1 (Influenza A virus, UniProt Q194T2); type: functional, Influenza A virus (A/California/07/2009(H1N1))
[20] = biological target: Histone-lysine N-methyltransferase NSD2 (Homo sapiens, UniProt O96028); type: biochemical
Histone-lysine N-methyltransferase NSD2, sequence (O96028 whole entry): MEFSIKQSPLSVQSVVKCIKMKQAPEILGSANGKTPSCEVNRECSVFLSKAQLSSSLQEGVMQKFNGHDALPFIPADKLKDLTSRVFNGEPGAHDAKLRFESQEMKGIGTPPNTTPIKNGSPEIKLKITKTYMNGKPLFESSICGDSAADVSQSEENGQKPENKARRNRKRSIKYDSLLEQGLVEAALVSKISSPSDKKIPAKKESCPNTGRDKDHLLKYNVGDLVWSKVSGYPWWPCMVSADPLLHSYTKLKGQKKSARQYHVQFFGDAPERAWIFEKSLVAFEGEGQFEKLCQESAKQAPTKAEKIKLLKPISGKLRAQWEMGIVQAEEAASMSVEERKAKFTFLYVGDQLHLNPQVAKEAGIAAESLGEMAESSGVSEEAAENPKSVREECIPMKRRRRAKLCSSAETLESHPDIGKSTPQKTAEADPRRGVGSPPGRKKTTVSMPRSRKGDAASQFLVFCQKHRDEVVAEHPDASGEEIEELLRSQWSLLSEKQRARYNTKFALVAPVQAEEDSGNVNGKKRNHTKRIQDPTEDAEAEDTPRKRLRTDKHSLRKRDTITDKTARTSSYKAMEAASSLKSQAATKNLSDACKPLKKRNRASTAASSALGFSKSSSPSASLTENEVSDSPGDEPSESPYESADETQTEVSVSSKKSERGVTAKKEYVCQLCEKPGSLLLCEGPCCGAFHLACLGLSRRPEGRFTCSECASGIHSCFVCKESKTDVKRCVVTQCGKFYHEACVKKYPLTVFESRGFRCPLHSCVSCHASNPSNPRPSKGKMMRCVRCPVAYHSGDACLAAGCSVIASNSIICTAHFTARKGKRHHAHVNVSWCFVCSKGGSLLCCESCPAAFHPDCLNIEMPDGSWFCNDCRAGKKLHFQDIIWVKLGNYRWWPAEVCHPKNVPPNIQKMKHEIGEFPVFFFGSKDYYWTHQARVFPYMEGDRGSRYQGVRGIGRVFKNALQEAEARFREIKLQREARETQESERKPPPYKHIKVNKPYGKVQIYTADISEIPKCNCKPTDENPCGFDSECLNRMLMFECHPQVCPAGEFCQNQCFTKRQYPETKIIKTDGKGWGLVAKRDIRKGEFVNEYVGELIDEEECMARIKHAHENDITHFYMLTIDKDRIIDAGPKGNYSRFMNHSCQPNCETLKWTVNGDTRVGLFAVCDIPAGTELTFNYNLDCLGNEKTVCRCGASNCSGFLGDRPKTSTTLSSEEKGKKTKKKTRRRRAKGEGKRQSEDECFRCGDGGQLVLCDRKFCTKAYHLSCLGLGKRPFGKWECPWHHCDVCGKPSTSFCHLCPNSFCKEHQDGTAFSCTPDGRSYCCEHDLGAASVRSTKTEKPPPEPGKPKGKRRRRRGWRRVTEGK

T2 sequence (Q79MP6 whole entry): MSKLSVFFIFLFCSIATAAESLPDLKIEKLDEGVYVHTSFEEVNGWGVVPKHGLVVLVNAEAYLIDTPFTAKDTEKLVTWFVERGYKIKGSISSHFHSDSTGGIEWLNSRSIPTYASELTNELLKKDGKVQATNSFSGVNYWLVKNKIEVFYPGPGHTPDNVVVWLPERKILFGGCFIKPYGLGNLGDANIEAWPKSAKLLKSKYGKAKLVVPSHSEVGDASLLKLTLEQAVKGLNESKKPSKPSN
Peroxisome proliferator-activated receptor gamma/Nuclear receptor coactivator 2, sequence (P37231 whole entry): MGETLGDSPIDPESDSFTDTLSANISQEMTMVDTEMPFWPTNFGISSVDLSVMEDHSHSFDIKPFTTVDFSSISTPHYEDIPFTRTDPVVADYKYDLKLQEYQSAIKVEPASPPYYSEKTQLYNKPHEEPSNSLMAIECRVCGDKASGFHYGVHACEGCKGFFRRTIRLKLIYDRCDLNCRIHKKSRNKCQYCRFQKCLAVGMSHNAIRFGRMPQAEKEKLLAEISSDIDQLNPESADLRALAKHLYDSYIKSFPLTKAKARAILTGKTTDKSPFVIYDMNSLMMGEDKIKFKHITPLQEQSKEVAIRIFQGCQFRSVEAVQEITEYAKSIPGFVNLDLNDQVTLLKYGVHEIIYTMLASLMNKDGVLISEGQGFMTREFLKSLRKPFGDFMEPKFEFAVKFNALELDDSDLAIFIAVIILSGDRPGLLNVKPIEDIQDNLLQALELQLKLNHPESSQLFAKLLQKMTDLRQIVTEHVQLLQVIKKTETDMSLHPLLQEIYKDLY
Peroxisome proliferator-activated receptor gamma/Nuclear receptor coactivator 2, sequence (Q15596 whole entry, further chain): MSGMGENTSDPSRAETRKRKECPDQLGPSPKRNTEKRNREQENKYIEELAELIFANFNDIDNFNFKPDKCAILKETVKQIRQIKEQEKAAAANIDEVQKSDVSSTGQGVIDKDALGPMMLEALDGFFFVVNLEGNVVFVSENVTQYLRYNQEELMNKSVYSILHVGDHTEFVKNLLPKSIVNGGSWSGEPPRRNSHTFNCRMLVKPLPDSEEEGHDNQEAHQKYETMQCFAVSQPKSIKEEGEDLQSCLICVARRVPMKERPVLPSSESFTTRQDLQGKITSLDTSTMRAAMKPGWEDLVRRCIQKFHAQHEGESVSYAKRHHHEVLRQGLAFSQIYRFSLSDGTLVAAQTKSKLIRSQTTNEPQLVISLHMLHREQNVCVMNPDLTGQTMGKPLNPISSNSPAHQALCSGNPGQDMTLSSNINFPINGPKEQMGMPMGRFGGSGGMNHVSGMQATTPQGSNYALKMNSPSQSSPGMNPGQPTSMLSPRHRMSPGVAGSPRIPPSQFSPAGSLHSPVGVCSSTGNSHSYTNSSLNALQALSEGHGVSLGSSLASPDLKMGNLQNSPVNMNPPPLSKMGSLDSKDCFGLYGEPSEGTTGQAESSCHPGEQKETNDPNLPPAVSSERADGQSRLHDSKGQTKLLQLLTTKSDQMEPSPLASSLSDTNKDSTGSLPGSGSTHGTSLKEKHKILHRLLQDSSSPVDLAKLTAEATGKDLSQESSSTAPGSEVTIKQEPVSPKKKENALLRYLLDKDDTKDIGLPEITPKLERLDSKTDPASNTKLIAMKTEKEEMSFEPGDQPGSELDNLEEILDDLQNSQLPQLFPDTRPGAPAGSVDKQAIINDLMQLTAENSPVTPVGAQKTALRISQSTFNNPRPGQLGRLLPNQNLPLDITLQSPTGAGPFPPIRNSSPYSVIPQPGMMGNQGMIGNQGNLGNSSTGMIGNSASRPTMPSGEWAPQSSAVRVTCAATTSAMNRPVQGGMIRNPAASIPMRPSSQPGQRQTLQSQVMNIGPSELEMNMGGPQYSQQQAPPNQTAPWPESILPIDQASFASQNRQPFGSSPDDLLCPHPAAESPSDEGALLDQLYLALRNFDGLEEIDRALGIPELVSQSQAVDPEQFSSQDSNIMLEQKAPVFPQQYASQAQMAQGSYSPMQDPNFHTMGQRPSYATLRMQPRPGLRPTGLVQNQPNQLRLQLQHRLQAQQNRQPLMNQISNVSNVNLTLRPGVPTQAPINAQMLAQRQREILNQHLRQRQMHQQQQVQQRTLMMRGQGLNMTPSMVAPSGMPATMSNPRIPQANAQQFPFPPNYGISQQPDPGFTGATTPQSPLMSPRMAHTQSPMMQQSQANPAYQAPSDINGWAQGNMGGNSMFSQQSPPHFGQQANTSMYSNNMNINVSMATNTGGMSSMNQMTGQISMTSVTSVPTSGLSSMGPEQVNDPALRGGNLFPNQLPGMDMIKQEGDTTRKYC
Beta-galactosidase, sequence (Q8VNN2 whole entry): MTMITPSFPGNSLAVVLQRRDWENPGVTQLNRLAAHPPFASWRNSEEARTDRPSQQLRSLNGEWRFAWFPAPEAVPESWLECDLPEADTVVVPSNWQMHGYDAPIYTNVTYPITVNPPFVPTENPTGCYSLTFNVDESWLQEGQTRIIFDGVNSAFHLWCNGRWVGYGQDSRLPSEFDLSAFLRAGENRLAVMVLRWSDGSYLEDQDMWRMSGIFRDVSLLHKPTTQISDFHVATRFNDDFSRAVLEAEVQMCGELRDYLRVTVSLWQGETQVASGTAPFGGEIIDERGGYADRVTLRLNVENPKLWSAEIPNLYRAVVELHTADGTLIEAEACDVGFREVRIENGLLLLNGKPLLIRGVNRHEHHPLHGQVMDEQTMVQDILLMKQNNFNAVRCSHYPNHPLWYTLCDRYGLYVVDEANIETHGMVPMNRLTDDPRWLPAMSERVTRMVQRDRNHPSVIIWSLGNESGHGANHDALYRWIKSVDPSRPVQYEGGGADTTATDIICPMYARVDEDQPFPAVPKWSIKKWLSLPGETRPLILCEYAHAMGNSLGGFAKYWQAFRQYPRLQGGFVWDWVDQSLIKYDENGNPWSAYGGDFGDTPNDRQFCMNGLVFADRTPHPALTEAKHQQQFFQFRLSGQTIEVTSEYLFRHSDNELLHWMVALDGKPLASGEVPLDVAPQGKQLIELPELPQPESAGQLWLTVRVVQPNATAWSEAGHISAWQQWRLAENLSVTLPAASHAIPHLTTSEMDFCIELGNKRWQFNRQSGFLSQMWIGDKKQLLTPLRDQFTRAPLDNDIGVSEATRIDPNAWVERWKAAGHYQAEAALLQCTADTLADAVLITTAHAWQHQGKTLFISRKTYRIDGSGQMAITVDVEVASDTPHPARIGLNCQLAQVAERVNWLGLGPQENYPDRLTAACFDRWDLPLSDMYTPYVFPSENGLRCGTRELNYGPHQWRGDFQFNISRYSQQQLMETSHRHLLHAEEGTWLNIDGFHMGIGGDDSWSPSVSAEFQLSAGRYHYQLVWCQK
Nonstructural protein 1, sequence (Q194T2 whole entry): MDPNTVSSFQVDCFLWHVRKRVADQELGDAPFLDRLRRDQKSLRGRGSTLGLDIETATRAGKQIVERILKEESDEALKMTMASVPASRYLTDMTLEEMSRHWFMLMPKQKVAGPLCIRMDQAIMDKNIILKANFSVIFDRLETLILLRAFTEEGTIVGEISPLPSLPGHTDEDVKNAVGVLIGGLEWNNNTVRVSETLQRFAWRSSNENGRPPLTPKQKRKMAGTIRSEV
Phospholipase A2, sequence (P04054 whole entry): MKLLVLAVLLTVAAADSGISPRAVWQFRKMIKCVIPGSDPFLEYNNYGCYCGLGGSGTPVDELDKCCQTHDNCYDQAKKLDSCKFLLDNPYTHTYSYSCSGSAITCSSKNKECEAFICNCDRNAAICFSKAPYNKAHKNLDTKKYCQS

CCCc1cc(=O)oc2cc(OCc3cc(OC)c(OC)c(OC)c3)c(Cl)cc12
AC50 (Cytochrome P450 3A4): 3.55 µM (inconclusive) | AC50 [1]: > 52 µM (inactive) | AC50 (Cytochrome P450 2C9): 1 µM (inconclusive)

CNC(=S)N1N=C(c2ccc(Br)cc2)CC1c1ccc(OC)cc1 (stereo unspecified)
EC50 [2]: 14.5 µM (inactive) | EC50 [3]: 49.9 µM (not active) | IC50 (Beta-galactosidase): > 80 µM (inactive) | EC50 [4]: 17.3 µM (not active)

O=C(CN1CCC(O)(c2cccc(C(F)(F)F)c2)CC1)NCCc1ccccc1
AC50 (Vero): 11.6 µM (active)

Cc1cc(OCc2cc(C(=O)O)oc2C)c2c3c(c(=O)oc2c1)CCCC3
IC50 (Aminopeptidase N): 66.4 µM (active) | IC50 (Beta-lactamase [5]): > 59.6 µM (inactive) | IC50 (Beta-lactamase [6]): > 59.6 µM (inactive) | IC50 (Phospholipase A2): 13.5 µM (active) | IC50 (Cysteine protease ATG4B): 17.3 µM (active) | IC50 (Beta-lactamase [7]): > 59.6 µM (inactive)

O=C(Nc1ccccc1)Nc1nncs1
EC50 (cells [8]): > 29.9 µM (inactive) | IC50 (cells [9]): > 29.9 µM (inactive)

CC1CCN(CCOc2ccc(OCc3ccccc3)cc2)CC1
AC50 [10]: < 9.29 µM (active) | AC50 (Vero): 25.9 µM (active)

COc1ccc(Cl)cc1C(Nc1cccnc1)c1ccc2cccnc2c1O (stereo unspecified)
EC50 [11]: 0.728 µM (active) | EC50 [12]: 6.56 µM (active) | EC50 [13]: 1.86 µM (active) | AC50 [14]: 2.2 µM (active) | EC50 [15]: 16.3 µM (active) | IC50 [16]: > 122 µM (inactive) | EC50 [17]: > 180 µM (inactive) | EC50 (Streptococcus): 5.9 µM (active) | EC50 [18]: 3.74 µM (active) | EC50 [19]: 33.6 µM (active)

Cc1ccc(N2CCOCC2)c2c1C(=O)c1ccccc1C2=O
IC50 (Nonstructural protein 1): 14.5 µM (active) | AC50 [20]: 10.5 µM (active) | IC50 [16]: > 122 µM (inactive)
